Data published in patent US8101624B2, “Quinazoline derivatives” (Aska Pharmaceutical Co., Ltd., priority 2006, dated 2012).

Target: T1, human recombinant PDE9 protein (hsPDE9A1) (Homo sapiens, UniProt O76083)
T1 construct: made in house; host or cells: COS-1 cells (transient transfection, pcDNA 3.1(+))
Assay: Measurement of PDE9-inhibiting activity ([3H]-cGMP hydrolysis)
Type: biochemical
Details: for inhibition at 1 µM: human recombinant PDE9, read-out: Inhibiting Activity PDE9 (percent inhibition at 1 μM)
Method: (1) Measurement of PDE9-Inhibiting Activity:
1) Preparation of Human Recombinant PDE9 Protein
Based on the base sequence of hsPDE9A1 registered with GenBank database (accession No.: AF048837), hsPDE9A1 fragment was amplified by polymerase chain reaction under the following conditions, using the following sequence (Amasham Pharmacia Biotech) as the primer and Human Prostate […] cDNA library (CLONTECH) as the template DNA, with Pfu Turbo DNA polymerase ([…]):
PCR condition: [95° C., 5 min]×1 cycle, [(95° C., 1 min), (58° C., 2 min), (72° C., 3 min)]×25 cycles, [72° C., 10 min]×1 cycle
Thus obtained hsPDE9A1 fragment was given a restricted enzymatic treatment with NheI and NotI, and thereafter inserted into pcDNA 3.1(+) expression vector (Invitrogen) to let it serve as a human PDE9 expression vector.
Human PDE9 expression vector-transformed Escherichia coli was mass incubated to produce a large amount of human PDE9 expression vector, which was transiently transfected into COS-1 cells, with LIPOFECTAMINE 2000 Reagent (GIBCO). The cells were homogenized in ice-cooled buffer A (40 mmol/L Tris-HCl, pH7.5, 15 mmol/L benzamidine, 15 mmol/L 2-mercaptoethanol, 1 μg/mL Pepstatin A, 1 μg/mL Leupeptin, 5 mmol/L EDTA) and centrifuged at 4° C., 14,000×g for 10 minutes. The supernatant was isolated to provide human recombinant PDE9 protein solution.
2) Measurement of PDE9-Inhibiting Activity
To 150 μL of buffer B (70 mmol/L Tris-HCl, pH7.5; 16.7 mmol/L MgCl2, 33.3 nmol/L [^3H]-cGMP) solution containing [^3H]-cGMP (specific activity=244.2 GBq/mmol) at a concentration of 33.3 nmol/L, 50 μL of a solution of the compound to be evaluated (formed by dissolving the compound in DMSO and diluting it with distilled water to DMSO concentration of 5%) and 50 μL of the PDE9 protein solution as prepared in the above, as diluted with buffer C (40 mmol/L Tris-HCl, pH7.5, 15 mmol/L benzamidine, 15 mmol/L 2-mercaptoethanol, 1 μg/mL Pepstatin A, 1 μg/mL Leupeptin) by 1,500×, were added under cooling with ice. This mixed solution was incubated at 30° C. for 30 minutes and the enzymatic reaction of PDE9 was terminated by heating the system in boiling water for 90 seconds. Returning the system to room temperature, 50 μL of Snake venom (SIGMA: 1 mg/mL) was added, followed by 10 minutes' incubation at 30° C., to convert the [^3H]-5′-GMP produced in the previous reaction to [^3H]-guanosine. This reaction solution was passed through a column filled with 1 mL of 0.5 mol/L hydrochloric acid-activated cation-exchange resin (Bio-Rad AG50W-X4 resin, mesh size 200-400) and removed of the unreacted substrate ([^3H]-cGMP) by elution with 12 mL of distilled water. Thereafter [^3H]-guanosine was eluted with 3 mL of 3 mol/L aqueous ammonia and its radiation activity was measured with liquid scintillation counter.
PDE9 inhibition of the tested compound can be calculated by the following formula: […]
From the percent inhibition at various concentration levels of each tested compound, its IC50 value against PDE9 can be determined.

T1 sequence (O76083 whole entry): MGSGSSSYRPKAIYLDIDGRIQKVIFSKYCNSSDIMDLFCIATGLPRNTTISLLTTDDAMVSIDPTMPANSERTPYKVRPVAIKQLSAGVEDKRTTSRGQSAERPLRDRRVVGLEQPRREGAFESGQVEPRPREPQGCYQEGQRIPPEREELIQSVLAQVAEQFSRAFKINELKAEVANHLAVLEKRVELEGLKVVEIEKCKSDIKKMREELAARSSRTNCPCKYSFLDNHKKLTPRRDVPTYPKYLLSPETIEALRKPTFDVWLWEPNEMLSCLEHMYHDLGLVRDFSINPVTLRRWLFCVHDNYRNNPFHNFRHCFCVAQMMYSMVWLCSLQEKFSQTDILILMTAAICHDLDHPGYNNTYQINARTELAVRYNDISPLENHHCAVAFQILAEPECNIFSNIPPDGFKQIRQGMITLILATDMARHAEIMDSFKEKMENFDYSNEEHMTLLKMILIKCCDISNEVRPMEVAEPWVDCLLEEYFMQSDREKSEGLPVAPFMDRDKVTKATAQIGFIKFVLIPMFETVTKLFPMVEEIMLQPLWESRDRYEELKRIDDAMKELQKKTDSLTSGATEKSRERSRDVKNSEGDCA

O=C(O)c1ccc2c(=O)[nH]c(Cc3ccccn3)nc2c1 [Example 6, 4-Oxo-2-(2-pyridylmethyl)-3,4-dihydroquinazoline-7-carboxylic acid]
IC50 (human recombinant PDE9 expressed in COS-1 cells, 30° C., 30 minutes): 1.36 µM

COc1ccc(Cc2nc3cc(C(=O)O)ccc3c(=O)[nH]2)cc1OC [Example 3, 2-(3,4-Dimethoxybenzyl)-4-oxo-3,4-dihydroquinazoline-7-carboxylic acid]
inhibition at 1 µM: 11%

COc1cccc(Cc2nc3cc(C(=O)O)ccc3c(=O)[nH]2)c1 [Example 5, 2-(3-Methoxybenzyl)-4-oxo-3,4-dihydroquinazoline-7-carboxylic acid]
inhibition at 1 µM: 41%

O=C(O)c1ccc2c(=O)[nH]c(Cc3cccnc3)nc2c1 [Example 7, 4-Oxo-2-(3-pyridylmethyl)-3,4-dihydroquinazoline-7-carboxylic acid]
inhibition at 1 µM: 30%

Cn1c(Cc2cccc(Cl)c2)nc2cc(C(=O)O)ccc2c1=O [Referential Example 1, 2-(3-Chlorobenzyl)-3-methyl-4-oxo-3,4-dihydroquinazoline-7-carboxylic acid, reference compound]
PDE9-inhibiting activity relative to that of the compound of Example 1 (ratio of activity versus Example 1): less than 1/100
